PMC5059921, “Chalepin: isolated from Ruta angustifolia L. Pers induces mitochondrial mediated apoptosis in lung carcinoma cells” (BMC Complementary and Alternative Medicine, 2016)
≈ marks a conversion by molar mass, not a printed value. Read-outs that look alike come from different tables or passages of the source.

Assays:
[1] = system: MRC5 (human normal lung fibroblasts); experiment: SRB in vitro cytotoxicity screening (toxicity to normal cells); format: cell-based; details: Homo sapiens, MRC5, isolated compounds, 72 h, read-out: IC50 in μg/ml (μM) (MRC5) 72 h (converted)
Experimental: (§1) The human cell lines A549 (lung cancer) and Ca Ski (cervical cancer) were cultured as monolayer in RPMI 1640 growth media whereas HCT-116 (colon cancer) and MRC5 (human normal lung fibroblasts) was cultured in McCoy’s 5A and EMEM medium, respectively. All cells were purchased from the […] (ATCC, USA). All the media were supplemented with 10 % v/v foetal bovine serum (FBS), 100 μg/mL penicillin/streptomycin, and 50 μg/mL amphotericin B. The cells were cultured in a 5 % CO2 incubator at 37 °C.
(§2) The monolayer cell culture was detached using accutase and the cell count was adjusted to 2.5 x10^5 -3.0 x10^5 cells/mL using medium containing feotal bovine serum. The cells were then plated into 96 wells with a cell density of 5000-7000 cells/well and then incubated for 24 h to allow adherence of cells to the base of well of the plates. The media was then removed and 200 μl of fresh media containing different concentration of various extracts or isolated compounds were added. Cisplatin was used as the positive control. The plates were incubated for 24, 48 and 72 h at 37 °C and 5 % CO2. The cytotoxicity of the extracts and isolated compounds were screened using the […] (SRB) assay. This assay was first described by Houghton in 2007 [8]. The incubation was halted by gentle addition of 50 μl ice cold 4 % trichloroacetic acid (TCA) to each well and the plates were incubated at 4 °C for 1 h. Then, the supernatant was discarded and the plates were washed with distilled water for 5 times and then air dried. SRB dye, 50 μl, (0.4 % w/v) was added into each well and the treated cells and control were incubated at room temperature for 30 min. The unbound dye was removed by rapid washing four times with 1 % acetic acid. The plates were then air dried and 100 μl of tris base (10 mM unbuffered, pH 10.5) was added and the plates were shaken at 500 rpm for 5 min to solublize the bound SRB stain. The plates were then read with an ELISA reader (Synergy H1 Hybrid) at an absorbance of 492 nm.

[2] = system: skin epidermoid carcinoma (A431); design: method as in PMID 17109253; details: arborinine isolated from Ruta graveolens; cited from earlier work
[3] = system: cervical carcinoma (HeLa); design: method as in PMID 17109253; details: arborinine isolated from Ruta graveolens; cited from earlier work
[4] = system: breast adenocarcinoma (MCF-7); design: method as in PMID 17109253; details: arborinine isolated from Ruta graveolens; cited from earlier work
A549 cell line = experiment: SRB in vitro cytotoxicity screening; format: cell-based, human; details: Homo sapiens, A549, isolated compounds
Experimental: as §1, §2

A-549 tumour cell line = details: cited from earlier work
[5] = system: hepatitis C virus, hepatoma cell line (Huh7.5); design: method as in PMID 25454460; details: cited from earlier work
[6] = system: DLD (DLD-1): Human colon adenocarcinoma; design: method as in earlier work; details: cited from earlier work
[7] = system: Hela: Human cervix epithelioid carcinoma; design: method as in earlier work; details: cited from earlier work
Hepa: Human hepatoma = system: Hepa: Human hepatoma; design: method as in earlier work; details: cited from earlier work
washed rabbit platelets = system: washed rabbit platelets; design: method as in earlier work; details: cited from earlier work; for % inhibition of platelet aggregation, inducer AA: AA 100 /c109/c77; for % inhibition of platelet aggregation, inducer Col: collagen 10 /c109g/mL
[8] = 48 h, value in brackets, read-out: IC50 in μg/ml (μM) (A549) 48 h (converted)
[9] = 48 h, read-out: IC50 in μg/ml (μM) (A549) 48 h (converted)
[10] = 72 h, value in brackets, read-out: IC50 in μg/ml (μM) (A549) 72 h (converted)
[11] = 72 h, read-out: IC50 in μg/ml (μM) (A549) 72 h (converted)

In the case of `COc1cc2c(c(O)c1OC)c(=O)c1ccccc1n2C` [Arborinine, arborinine], the IC50 ([1]; value in brackets) is given as 73 µM, the IC50 [1] is given as 20.8 ± 0.15 µg/mL and the IC50 [2] is given as 12.95 µg/mL (≈ 45.4 µM). The IC50 [3] was 1.84 µg/mL (≈ 6.45 µM), the IC50 [4] was 11.74 µg/mL (≈ 41.1 µM) and the IC50 (A549 cell line; [8]) was 97.2 µM. The IC50 (A549 cell line; [9]) was 27.7 ± 0.26 µg/mL, the IC50 (A549 cell line; [10]) was 46 µM and the IC50 (A549 cell line; [11]) was 13.1 ± 0.06 µg/mL.
In the case of `C=CC(C)(C)c1cc2cc3c(cc2oc1=O)OC(C(C)(C)OC(C)=O)C3` (centres unmarked) [Rutamarin, rutamarin], the “IC50 against A549 cell line” value (A-549 tumour cell line) is given as 1.318 µg/mL (≈ 3.7 µM), the IC50 ([1]; value in brackets) is given as greater than 281 µM and the IC50 [1] is given as greater than 100 µg/mL. For the same compound, the IC50 (A549 cell line; [8]) was 158 µM, the IC50 (A549 cell line; [9]) was 56.3 ± 1.53 µg/mL and the IC50 (A549 cell line; [10]) was 192 µM. The IC50 (A549 cell line; [11]) was 68.5 ± 3.06 µg/mL.
For `CC(=O)O[C@H]1C(=O)[C@@]2(C)[C@H]([C@H](OC(=O)c3ccccc3)[C@]3(O)C[C@H](OC(=O)[C@H](O)[C@@H](NC(=O)c4ccccc4)c4ccccc4)C(C)=C1C3(C)C)[C@]1(OC(C)=O)CO[C@@H]1C[C@@H]2O` [Taxol, reference compound], the “IC50 A-549” value (A-549 tumour cell line) is listed as 0.0166 mg/mL (≈ 19.4 µM).
For `CCCCCCCCCc1cc(=O)c2ccccc2[nH]1` [pseudane IX], the “replication of hepatitis C virus” value [5] is given as “stop the replication”.
In the case of graveolinine [Compound 16], the “ED50 DLD” value [6] is given as “- (“-“: ED50 /c6220 /c109g/mL)”, the “ED50 Hela” value [7] is given as “- (“-“: ED50 /c6220 /c109g/mL)” and the “ED50 Hepa” value (Hepa: Human hepatoma) is given as “- (“-“: ED50 /c6220 /c109g/mL)”. For the same compound, the “% inhibition of platelet aggregation, inducer AA” value (shortened to “% inhibition … inducer AA”) (washed rabbit platelets; Conc. 0.2 /c109g/mL) was 6.8%, the “% inhibition … inducer AA” value (washed rabbit platelets; Conc. 0.5 /c109g/mL) was 14.9% and the “% inhibition of platelet aggregation, inducer Col” value (“% inhibition … inducer Col” for short) (washed rabbit platelets; Conc. 0.5 /c109g/mL) was 5.8%. The “% inhibition … inducer AA” value (washed rabbit platelets; Conc. 1 /c109g/mL) was 26.9%, the “% inhibition … inducer Col” value (washed rabbit platelets; Conc. 1 /c109g/mL) was 19.2% and the “% inhibition … inducer AA” value (washed rabbit platelets; Conc. 2 /c109g/mL) was 38.4%. The “% inhibition … inducer Col” value (washed rabbit platelets; Conc. 2 /c109g/mL) was 25.4%, the “% inhibition … inducer AA” value (washed rabbit platelets; Conc. 5 /c109g/mL) was 71.2% and the “% inhibition … inducer Col” value (washed rabbit platelets; Conc. 5 /c109g/mL) was 33.3%. For the same compound, the “% inhibition … inducer AA” value (washed rabbit platelets; Conc. 10 /c109g/mL) was 73.1%, the “% inhibition … inducer Col” value (washed rabbit platelets; Conc. 10 /c109g/mL) was 49.5% and the “% inhibition … inducer AA” value (washed rabbit platelets; Conc. 20 /c109g/mL) was 77.4%. For the same compound, the “% inhibition … inducer Col” value (washed rabbit platelets; Conc. 20 /c109g/mL) was 72.6%, the “% inhibition … inducer AA” value (washed rabbit platelets; Conc. 50 /c109g/mL) was 100.0% and the “% inhibition … inducer Col” value (washed rabbit platelets; Conc. 50 /c109g/mL) was 81.2%. The “% inhibition … inducer AA” value (washed rabbit platelets; Conc. 100 /c109g/mL) was 100.0%, the “% inhibition of platelet aggregation, inducer PAF” value (washed rabbit platelets; Conc. 100 /c109g/mL, PAF 2ng/mL) was 34.6% and the “% inhibition … inducer Col” value (washed rabbit platelets; Conc. 100 /c109g/mL) was 100.0%. For the same compound, the “% inhibition of platelet aggregation, inducer Thr” value (washed rabbit platelets; Conc. 100 /c109g/mL, thrombin 0.1 U/mL) was 9.0%.
In the case of rutamarin [Compound 4], the “IC50 A-549” value (A-549 tumour cell line) is listed as 1.318 mg/mL.
For skimmianine [Compound 7], the “ED50 DLD” value [6] is given as “- (“-“: ED50 /c6220 /c109g/mL)”, the “ED50 Hela” value [7] is given as “- (“-“: ED50 /c6220 /c109g/mL)” and the “ED50 Hepa” value (Hepa: Human hepatoma) is given as “- (“-“: ED50 /c6220 /c109g/mL)”. For the same compound, the “% inhibition … inducer AA” value (washed rabbit platelets; Conc. 20 /c109g/mL) was 5.4%, the “% inhibition … inducer Col” value (washed rabbit platelets; Conc. 20 /c109g/mL) was 2.5% and the “% inhibition … inducer AA” value (washed rabbit platelets; Conc. 50 /c109g/mL) was 13.1%. The “% inhibition … inducer Col” value (washed rabbit platelets; Conc. 50 /c109g/mL) was 7.8%, the “% inhibition … inducer AA” value (washed rabbit platelets; Conc. 100 /c109g/mL) was 81.5% and the “% inhibition … inducer Col” value (washed rabbit platelets; Conc. 100 /c109g/mL) was 45.9%.
